Data on 32 molecules can be found in the SangsterLogP compilation.

The data set in a line: method code SF-AS, from DOI: 10.1021/je900189v.

What is called logP is the decadic logarithm of the partition coefficient of the neutral form, usually between octanol and water. Read a low logP as lower lipophilicity. Take `Cc1cc(N)ccc1S(=O)(=O)Nc1ccccc1[N+](=O)[O-]`: the logP is 2.19.
Consider `Nc1ccc(S(=O)(=O)Nc2cc(Cl)c(Cl)cc2Cl)cc1`, for which the log partition coefficient (logP) came to 3.17.
`Nc1ccc(S(=O)(=O)Nc2ccc(I)cc2)cc1` returned a log partition coefficient (logP) of 2.82.
The same measure for `CCOc1ccc(NS(=O)(=O)c2ccc([N+](=O)[O-])cc2)cc1`: 2.23; for `CNS(=O)(=O)c1ccc(N)cc1`: 0.07.
Then `Nc1ccc(S(=O)(=O)Nc2ccc(Cl)cc2)cc1`, with 2.47; and `O=[N+]([O-])c1ccc(S(=O)(=O)Nc2nccs2)cc1`, with 1.19.
The same measure for `O=S(=O)(Nc1cccnc1Cl)c1ccccc1`: 1.89.
Take `CCN(CC)S(=O)(=O)c1ccc(N)cc1`: the logP worked out at 1.52.
Then `COc1ccc(NS(=O)(=O)c2ccc(N)cc2)cc1`, with 1.58; and `Nc1ccc(S(=O)(=O)Nc2ccc(Cl)c(Cl)c2)cc1`, with 2.64.
`Nc1ccc(S(=O)(=O)Nc2ccc([N+](=O)[O-])cc2Br)cc1` displayed a logP of 1.87.
Then `CC(=O)Nc1ccncc1NS(=O)(=O)c1ccc([N+](=O)[O-])cc1`, with 0.71; and `O=S(=O)(Nc1cccc(Cl)c1Cl)c1ccccc1`, with 3.45.
Then `O=[N+]([O-])c1ccc(NS(=O)(=O)c2ccccc2)cc1`, with 2.09; and `Cc1ccc(NS(=O)(=O)c2ccc(N)cc2)c(Cl)c1`, with 2.37.
Then `Cc1ccc(Cl)cc1NS(=O)(=O)c1ccc(N)cc1`, with 2.73; and `Nc1ccc(S(=O)(=O)Nc2ccc([N+](=O)[O-])cc2)cc1`, with 1.88; and `COc1c(Cl)cccc1NS(=O)(=O)c1ccc(N)cc1`, with 2.43.
With `Cc1cc(N)ccc1S(=O)(=O)Nc1ccccc1Cl`, the lipophilicity (logP) was 2.66.
Then `O=[N+]([O-])c1ccccc1NS(=O)(=O)c1ccccc1`, with 2.08.
Then `Cc1ccc(NS(=O)(=O)c2ccc(N)cc2)cc1Cl`, with 2.92; and `Cc1cc(Cl)ccc1NS(=O)(=O)c1ccc(N)cc1`, with 2.65; and `O=S(=O)(Nc1ccc(Cl)cc1)c1ccccc1`, with 3.44.
The same measure for `Nc1ccc(S(=O)(=O)Nc2ccccc2Cl)c(Cl)c1`: 2.98; for `O=S(=O)(Nc1ncccc1Cl)c1ccccc1`: 1.54.
In the case of `O=S(=O)(Nc1ccccc1Cl)c1ccccc1`, the logP amounted to 2.72.
The same measure for `Cc1ccc(NS(=O)(=O)c2ccc([N+](=O)[O-])cc2)nc1`: 1.01; for `CCc1ccc(NS(=O)(=O)c2ccc(N)cc2)cc1`: 2.62.
In turn, `Nc1ccc(S(=O)(=O)Nc2ccc(Cl)cc2)c(Cl)c1` showed a lipophilicity (logP) of 2.48.
Turning to `Cc1cc(N)ccc1S(=O)(=O)Nc1ccc(Cl)cc1`, the logP stood at 2.73.
The same measure for `Nc1ccc(S(=O)(=O)Nc2cc(Cl)ccc2Cl)cc1`: 2.45.
